Data from patent publication US20210386709A1, “COMPOSITIONS AND METHODS FOR SUPPRESSING MSUT2” (United States Government As Represented By The Department …, priority 2020, published 2021).
Read-outs that look alike come from different tables or passages of the source. {FAM} = fluorescein amidite label

Experiments:
MSUT2 ZF = target: T1, MSUT2 ZF (Homo sapiens, UniProt Q6PJT7); assay: Fluorescence polarization assay of FAM-poly(A) RNA:MSUT2 ZF binding; details: for Ki (nm) for MSUT2 / Ki: calculated by Cheng Prusof equation Ki=(IC50)/[(L/Kd)+1], FP dose response; for Ki: read-out: Ki (nm) for MSUT2
T1 construct: Targeted construct consisted of the c-terminal end (dark blue and amino acids 601-736) of MSUT2; made in house; host or cells: E. coli BL21 (DE3)
T1 sequence (Q6PJT7 601-736): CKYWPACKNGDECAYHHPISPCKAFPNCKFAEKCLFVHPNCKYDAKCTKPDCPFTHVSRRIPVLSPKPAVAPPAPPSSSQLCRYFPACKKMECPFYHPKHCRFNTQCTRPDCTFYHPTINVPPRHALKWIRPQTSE
Experimental: Fluorescence Polarization Assay. […] 2 μL of compound was transferred for a final concentration of 10 μM. […] Fluorescence polarization was calculated by first subtracting background from a buffer-only control well and then using the equation
Results and Discussion. A high-throughput fluorescence polarization assay for inhibition of poly(A):MSUT2 RNA interaction. […] In order to screen potential inhibitors of MSUT2 RBP and RNA by FP, fluorescent FAM (fluorescein amidite)-labeled poly(A)15 RNA (FAM-RNA) and recombinant MSUT2 ZF (zinc finger) protein expressing constructs were generated (FIG. 7a). […] Inhibition of the interaction results in unbound FAM-RNA tumbling at a relatively rapid rate and emitting non-polarized light (FIG. 7b).
(§1) To determine the concentrations of both MSUT2 ZF protein and FAM-RNA probe useful in the methods described herein, a two dimensional titration of protein and RNA concentrations in 96-well format was performed. […] Next, the binding constant between MSUT2 ZF and FAM-RNA was determined by holding FAM-RNA constant at 10 nM while increasing MSUT2 ZF concentration.
(§2) Identification and validation of MSUT2 inhibitory compounds from NIHCC library. […] IC50 of each of the previous 8 compounds was determined for PABPN1 using fluorescence polarization (FIG. 11), and a specificity ratio determined (Table 3). An Alpha Screen (AS) assay was developed as an orthogonal screen. Briefly, in this screen, biotinylated RNA binds streptavidin-coated donor beads, while GST-MSUT2 ZF binds glutathione-coated acceptor beads. When donor beads and acceptor beads are brought within close proximity of one another, laser excitation leads to fluorophore emission of the acceptor bead via excited singlet oxygen activating chemiluminescers in the acceptor beads. […] Toxicity of these compounds in a HEK cell model was determined using a standard Promega Cell Titer Glo assay.
(§3) Fluorescence Polarization Assay. […] of stock compound was transferred yielding 10 μM final concentration. […] Fluorescence polarization was calculated by first subtracting background from a buffer-only control well and then using the equation

HEK-293 cells = assay: Cell viability, Promega Cell Titer Glo
PABPN1 [1] = target: T2, PABPN1 (Homo sapiens, UniProt Q86U42); assay: PABPN1 fluorescence polarization counter screen; format: binding; details: for IC50 / IC50PABPN1: fluorescence polarization counter screen; for IC50: unit inferred, read-out: IC50PABPN1; for IC50PABPN1: unit not given; for PABPN1/MSUT2 specificity ratio: ratio of FP IC50s
T2 construct: made in house; host or cells: E. coli BL21 (DE3)
T2 sequence (Q86U42 1-306): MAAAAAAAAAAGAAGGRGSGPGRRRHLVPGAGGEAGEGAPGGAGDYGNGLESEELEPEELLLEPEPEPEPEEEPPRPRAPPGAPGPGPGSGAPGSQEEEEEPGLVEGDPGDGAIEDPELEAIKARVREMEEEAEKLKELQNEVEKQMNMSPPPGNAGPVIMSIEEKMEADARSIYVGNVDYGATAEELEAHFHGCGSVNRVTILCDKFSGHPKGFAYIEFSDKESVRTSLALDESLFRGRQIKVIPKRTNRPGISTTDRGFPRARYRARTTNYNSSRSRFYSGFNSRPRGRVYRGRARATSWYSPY
Experimental: A drug repurposing strategy: screening of the NIH Clinical Collection compound library. […] The plan to find suitable lead compounds for drug repurposing began with a screen of the NIH Clinical Collection (NIHCC) library. The NIHCC consists of a diverse array of 700 compounds with historical pharmacological use and well-studied safety profiles. […] An orthogonal poly(A):MSUT2 binding assay allowed the ruling out of assay interference while selectivity against MSUT2 over PABPN1 was determined by a parallel FP assay with PABPN1 as the RBP. […] Thus, the goal was to eliminate compounds interfering with both PABN1 and MSUT2 and focus on compounds truly specific for poly(A):MSUT2 binding.
as §2, §3

GST-MSUT2 = target: T3, GST-MSUT2 (Homo sapiens, UniProt Q6PJT7); assay: Alpha Screen assay of biotinylated poly(A) RNA:GST-MSUT2 binding; details: orthogonal dose-response validation
T3 construct: Targeted construct consisted of the c-terminal end (dark blue and amino acids 601-736) of MSUT2; made in house; host or cells: E. coli BL21 (DE3)
T3 sequence (Q6PJT7 601-736): T1 sequence (Q6PJT7 601-736)
Experimental: Alpha Screen Assay. Samples were set up in 384 well Perkin Elmer white opaque-bottom plates (PE06). A total reaction volume of […] was plated in 384 format using a CyBio Well Vario (6 μL of donor beads (10 μg/mL), 3 μL biotinylated RNA (250 nM), 3 μL GST-MSUT2 protein (250 nM) per well). 50 nL of compounds were transferred to wells via CyBio Vario equipped with Pin Tool. This mixture was incubated at room temperature for 30 minutes away from light. Next 3 μL of acceptor beads (1.25 μg/mL) was added. Plates were incubated at room temperature away from light for 60 minutes and subsequently read on a Perkin Elmer EnVision multimode microplate reader equipped with stackers using a standard 384-well Alpha Assay software protocol.
Results. Alpha Screen design and underlying principle. Alpha Screen technology relies on donor beads, coated with a hydrogel excitable by 680 nm, brought within close proximity to an acceptor bead leading to light emission and detection. In this assay, streptavidin coated donor beads tightly bind to biotinylated-poly(A) RNA while the glutathione-coated acceptor bead binds to GST-tagged MSUT2 protein. […] When this interaction is blocked by an inhibitor, the proximity threshold for donor and acceptor beads is not met, singlet oxygen transference cannot occur, and light is not emitted by the acceptor bead (FIG. 1a).
Identification and validation of MSUT2 inhibitory compounds from NIHCC library. The single-point primary screen was conducted in duplicate and utilized the FP assay conditions determined herein (e.g., 125 nM MSUT2 RNABP and 10 nM FAM-RNA probe) with 10 μM library compounds added in a 96-well format. […] Compound specificity was empirically tested by counter screening against PABPN1, a regulator of the length of mRNA poly(A) tails (Apponi, L. H. et al. Hum Mol Genet 19, 1058-1065, (2010); and Benoit, B. et al. Dev Cell 9, 511-522, (2005)). IC50 of each of the previous 8 compounds was determined for PABPN1 using fluorescence polarization (FIG. 11), and a specificity ratio determined (Table 3). An Alpha Screen (AS) assay was developed as an orthogonal screen. Briefly, in this screen, biotinylated RNA binds streptavidin-coated donor beads, while GST-MSUT2 ZF binds glutathione-coated acceptor beads. […] Toxicity of these compounds in a HEK cell model was determined using a standard Promega Cell Titer Glo assay.
Alpha Screen Assay. […] The plate was then incubated again at room temperature away from light for 60 minutes and subsequently read on a Perkin Elmer EnSight multimode microplate reader using a standard 96-well Alpha Assay protocol.

MSUT2 = target: T4, MSUT2 (Homo sapiens, UniProt Q6PJT7); details: read-out: Kd of MSUT2 for poly(A); cited from earlier work
T4 sequence (Q6PJT7 1-736): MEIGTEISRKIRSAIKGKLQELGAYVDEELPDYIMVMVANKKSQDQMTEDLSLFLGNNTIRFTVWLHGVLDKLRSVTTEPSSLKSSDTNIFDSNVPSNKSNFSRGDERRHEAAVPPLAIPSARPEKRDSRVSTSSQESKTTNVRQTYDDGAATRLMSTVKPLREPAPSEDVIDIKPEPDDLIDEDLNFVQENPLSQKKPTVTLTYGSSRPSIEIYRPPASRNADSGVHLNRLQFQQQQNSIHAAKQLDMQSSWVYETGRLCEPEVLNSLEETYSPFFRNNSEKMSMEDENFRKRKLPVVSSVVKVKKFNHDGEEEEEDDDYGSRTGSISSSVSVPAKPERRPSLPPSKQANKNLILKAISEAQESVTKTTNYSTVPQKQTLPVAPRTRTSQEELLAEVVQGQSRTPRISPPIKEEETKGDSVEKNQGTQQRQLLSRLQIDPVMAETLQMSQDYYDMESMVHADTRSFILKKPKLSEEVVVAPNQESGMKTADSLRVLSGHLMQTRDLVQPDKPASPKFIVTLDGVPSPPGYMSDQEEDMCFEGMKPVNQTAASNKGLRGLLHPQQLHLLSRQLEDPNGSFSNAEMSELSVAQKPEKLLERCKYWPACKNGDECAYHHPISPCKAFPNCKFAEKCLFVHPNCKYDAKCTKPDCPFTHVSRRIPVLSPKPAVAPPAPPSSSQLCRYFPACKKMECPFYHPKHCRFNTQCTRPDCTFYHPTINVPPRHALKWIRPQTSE

[2] = target: T5, MSUT2 ZF (ZC3H14 C-terminal CCCH zinc finger domain) (UniProt Q6PJT7 Q6PJT7:601-736); assay: FP; PBS, room temperature, 10 nM FAM-RNA; reported as affinity / binding constant; details: tags: GST (pGEX-6P1); label: 5' FAM
T5 sequence: T1 sequence (Q6PJT7 601-736)
Experimental: as §1, §3

[3] = target: T5, MSUT2 ZF (ZC3H14 C-terminal CCCH zinc …); assay: competition; FP competition, 10 nM FAM-RNA and 125 nM MSUT2 ZF, PBS; details: tags: GST (pGEX-6P1)
Experimental: as §1, §3

PABPN1 [4] = target: T6, PABPN1 (UniProt Q86U42 Q86U42:1-306); assay: Alpha Screen counter-screen; details: tags: GST (pGEX-6P1); label: 5' biotin
T6 sequence: T2 sequence (Q86U42 1-306)

## CNCC[C@@H](Oc1ccccc1C)c1ccccc1 [Atomoxetine]
MSUT2 ZF
  Ki (nm) for MSUT2: failed dose

## O=C(O)C1=CC(=C(c2ccc(O)c(C(=O)O)c2)c2ccc(O)c(C(=O)O)c2)C=CC1=O [Aurin tricarboxylic acid]
HEK-293 cells; HEK-293, 72 hours, indicated concentrations
  toxicity (effect on cell viability): relatively high toxicity at high concentrations

## O=C(N[C@H](CO)[C@H](O)c1ccc([N+](=O)[O-])cc1)C(Cl)Cl [Chloramphenicol]
MSUT2 ZF
  Ki (nm) for MSUT2: failed DR

## CC(C(=O)O)c1ccc(-c2ccccc2)c(F)c1 (stereo not drawn) [Flurbiprofen]
PABPN1 [1]
  IC50: 6570 nM

## CN1C2CCCC1CC(NC(=O)c1nn(C)c3ccccc13)C2 (stereo not drawn) [Granisetron]
PABPN1 [1]
  IC50PABPN1: None
MSUT2 ZF
  Ki: 534 nM
MSUT2 ZF; read-out: IC50MSUT2
  IC50: 541 nM

## OCCOCCN1CCN(C(c2ccccc2)c2ccc(Cl)cc2)CC1 (stereo not drawn) [Hydroxyzine]
PABPN1 [1]
  IC50: 23700 nM
  PABPN1/MSUT2 specificity ratio: 40.7931
MSUT2 ZF
  Ki: 573 nM

## CC(C)(C)NC(=O)[C@@H]1CN(Cc2cccnc2)CCN1C[C@@H](O)C[C@@H](Cc1ccccc1)C(=O)N[C@H]1c2ccccc2C[C@H]1O [Indinavir]
PABPN1 [1]
  IC50: 28900 nM
MSUT2 ZF
  Ki: 916 nM
MSUT2 ZF; read-out: IC50MSUT2
  IC50: 927 nM

## CCCCN1CCCC1CNC(=O)c1cc(C#N)c2ccccc2c1OC (stereo not drawn) [Nafadotride]
PABPN1 [1]
  IC50: 67700 nM
  PABPN1/MSUT2 specificity ratio: 77.11
MSUT2 ZF
  Ki: 867 nM

## CC(C)(C)NC(=O)[C@@H]1C[C@@H]2CCCC[C@@H]2CN1C[C@@H](O)[C@H](Cc1ccccc1)NC(=O)[C@H](CC(N)=O)NC(=O)c1ccc2ccccc2n1 [Saquinavir]
HEK-293 cells; HEK, highest tested dose of 4004, normalized to 2% DMSO vehicle
  cell viability: 65%
PABPN1 [1]
  IC50PABPN1: None
GST-MSUT2
  inhibition activity by Alpha Screen (AS): dose-dependent inhibition activity
MSUT2 ZF
  Ki: 188 nM

## C[C@H]1CCC[C@H](O)CCCCCc2cc(O)cc(O)c2C(=O)O1 [Zeranol]
MSUT2 ZF
  Ki (nm) for MSUT2: failed DR

## FAM-RNA: fluorescent FAM (fluorescein amidite)-labeled poly(A)15 RNA probe (SEQ ID NO: 3) (AAAAAAAAAAAAAAA; RNA, 5' {FAM}, backbone not given here)
MSUT2 ZF; saturation assay, FAM-RNA constant at 10 nM, read-out: affinity for FAM-RNA:MSUT2 ZF interaction
  Kd: 810 nM

## poly(A): poly(A) RNA, natural ligand of MSUT2 (AAAAAAAAAAAAAAA; RNA, backbone not given here)
MSUT2
  Kd: 60 ± 15 nM

## unlabeled poly(A)15 RNA: unlabeled poly(A) RNA 5′-AAAAAAAAAAAAAAA-3′ (SEQ ID NO: 2), positive control for inhibition (RNA, backbone not given here)
MSUT2 ZF; 10 nM FAM-RNA:125 nM MSUT2 ZF, positive control, read-out: IC50 in FP competition assay
  IC50: 320 nM

## AAAAAAAAAAAAAAA (ssRNA) [FAM-poly(A)15]
[2]
  Kd: 810 nM

## AAAAAAAAAAAAAAA (ssRNA) [poly(A)15 unlabeled]
[3]
  IC50: 320 nM

## AAAAAAAAAAAAAAA (ssRNA) [biotin-poly(A)15]
PABPN1 [4]
  binding result: binds
